Assays:
HUVEC cells [1] = assay: Electric-field-induced elongation of endothelial cells (long:short axis ratio); format: cell-based
Procedure: HUVEC cells were seeded in a trough formed by two parallel (1 cm apart) strips of glass coverslip (No. 1, length of 22 mm) fixed to the base of the dish with silicone grease. Scratch lines were made perpendicular to the long axis of the chamber with a fine sterile needle and used as reference marks for directed cell migration. Cells were incubated for 24-48 hours (37° C., 5% CO2) before a roof coverslip was applied and sealed with silicone grease. The final dimensions of the chamber, through which current was passed, were 22×10×0.2 mm. Agar-salt bridges not less than 15 cm long were used to connect silver/silver-chloride electrodes in beakers of Steinberg's solution (58 mM NaCl, 0.67 mM KCl, 0.44 mM Ca(NO3)2, 1.3 mM MgSO4, 4.6 mM Trizma base, pH 7.8-8.0), to pools of excess culture medium at either side of the chamber. Field strengths were measured directly at the beginning of, the end of and during each experiment. No fluctuations in field strength were observed. […] (50 μM), the Rho kinase inhibitor Y27632 (50 μM), both Akt and Rho kinase inhibitors (10 μM each) or latrunculin (50 nM) for 1 hour before EF stimulation. The same concentration of drug was present during EF exposure in a CO2 incubator.
A series of images was taken with an image analyser immediately before EF exposure and at 4, 8 and 24 hours of EF exposure. Cell orientation was quantified as an orientation index (Oi), which is defined as Oi=cos2 (a), where a is the angle formed by the long axis of a cell with a line drawn […] to the field lines. A cell with its long axis parallel to the vector of the EF will have an Oi of −1, and a cell with its long axis exactly perpendicular to the EF vector will have an Oi of +1. […] The significance of this two-dimensional orientation distribution against randomness was calculated using Rayleigh's distribution. A long:short axis ratio was calculated for assessment of elongation.
HUVEC cells elongated dramatically in an EF. […] We quantified the elongation of the cells using a long:short axis ratio. […]

HUVEC cells [2] = assay: Electric-field-induced reorientation of endothelial cells (orientation index Oi); format: cell-based; conditions: for orientation response in EF (in words): inhibitors 50 μM (latrunculin 50 nM), 1 hour before and during EF
Procedure: A series of images was taken with an image analyser immediately before EF exposure and at 4, 8 and 24 hours of EF exposure. Cell orientation was quantified as an orientation index (Oi), which is defined as Oi=cos2 (a), where a is the angle formed by the long axis of a cell with a line drawn perpendicular to the field lines. A cell with its long axis parallel to the vector of the EF will have an Oi of −1, and a cell with its long axis exactly perpendicular to the EF vector will have an Oi of +1. A randomly oriented population of cells will have an average Oi {defined as [Σn cos2(α)]+n} of 0. The significance of this two-dimensional orientation distribution against randomness was calculated using Rayleigh's distribution. A long:short axis ratio was calculated for assessment of elongation.
Cell alignment was quantified using an orientation index Oi=cos2(α), where a is the angle formed between the long axis of a cell and a line drawn perpendicular to the field lines. In cells oriented perpendicular to the field vector, the Oi is +1, cells parallel to the field vector give an Oi of −1 and random orientation gives an Oi of 0.

[3] = system: HaCaT human keratinocytes; assay: Scratch assay, HaCaT keratinocyte migration, Example 3; conditions: catalase over-expression; 5 mM N-acetylcysteine 1 h pretreatment; 50 nM IGF-1R inhibitor
Procedure: Cell culture—Immortalized HaCaT human keratinocytes were grown in Dulbecco's low-glucose modified Eagle's medium (Life Technologies, Gaithersburg, MD, U.S.A.) supplemented with 10% fetal bovine serum, 100 U/ml penicillin, and 100 g/ml streptomycin. The cells were maintained in a standard culture incubator with humidified air containing 5% CO2 at 37° C.
Scratch assay—A cell migration assay was performed using culture inserts (IBIDI®, Verona, WI) according to the manufacturer's instructions. Cell migration was measured using time-lapse phase-contrast microscopy following withdrawal of the insert. Images were analyzed using the AxioVision Rel 4.8 software.
N-Acetyl Cysteine Treatment—Cells were pretreated with 5 mM of the thiol antioxidant N-acetylcysteine (Sigma) for 1 h before start of the scratch assay.
IGF-1R inhibition—When applicable, cells were preincubated with 50 nM IGF-1R inhibitor, picropodophyllin (Calbiochem, MA) just prior to the Scratch Assay.
Catalase gene delivery—HaCaT cells were transfected with 2.3×10^7 pfu AdCatalase or with the empty vector as control in 750 μL of media. Subsequently, 750 μL of additional media was added 4 h later and the cells were incubated for 72 h.

| Compound | long:short axis ratio / elongation response in EF-treated cells (in words) (HUVEC cells [1]) | orientation response in EF (in words) (HUVEC cells [2]) | effect on the increased migration triggered by LLEC [3] | other results |
| --- | --- | --- | --- | --- |
| 1-L-6-hydroxymethyl-chiro-inositol 2-[(R)-2-O-methyl-3-O-octadecylcarbonate] [Akt inhibitor] | significantly decreased the long:short axis ratio | significantly decreased the orientation response |  |  |
| COc1cc([C@@H]2c3cc4c(cc3[C@H](O)[C@H]3COC(=O)[C@@H]23)OCO4)cc(OC)c1OC [IGF-1R inhibitor, picropodophyllin] |  |  | attenuated the increased keratinocyte migration |  |
| C/C1=C/C(=O)O[C@@H]2C[C@@H](CC[C@H](C)/C=C\C=C\CC1)O[C@@](O)([C@@H]1CSC(=O)N1)C2 [Latrunculin A] | completely abolished the EF-induced elongation response | suppressed the orientation response significantly |  |  |
| CC(=O)N[C@@H](CS)C(=O)O [N-Acetyl Cysteine] |  |  | failed to reproduce the increased migration |  |
| N#CC(=C(/N)Sc1ccccc1N)/C(C#N)=C(\N)Sc1ccccc1N [U0126] |  | decreased the orientation to a similar extent |  |  |
| COc1cc2ncnc(Nc3ccc(Cl)cc3F)c2cc1OC [VEGFR inhibitor, 4-[(4′-chloro-2′-fluoro)phenylamino]-6,7-dimethoxyquinazoline] |  | completely abolished the reorientation |  |  |
| C[C@@H](N)[C@H]1CC[C@H](C(=O)Nc2ccncc2)CC1 [Y27632] | significantly decreased the long:short axis ratio |  |  | orientation index Oi (HUVEC cells [2]; value in sentence on U0126 (50 μM)): 0.33±0.03 |
| catalase |  |  | attenuated the increased migration |  |

— patent US12185774B2, “Methods and devices for preventing viral transmission” (priority 2020, dated 2025)
